Among the data in US12637440B2, “Amide derivative useful as diacylglycerol acyltransferase 2 inhibitor, and use thereof” (LG CHEM, LTD., priority 2019, dated 2026) are IC50 values, retold here.

For the assay, the target named is T1, Recombinant human DGAT2 protein (Homo sapiens, UniProt Q96PD7).
T1 construct: FLAG (DYKDDDDK); (N); made in house; host or cells: Sf-21 insect cells (BacPAK baculovirus system); used as a membrane preparation
T1 sequence (Q96PD7 1-388): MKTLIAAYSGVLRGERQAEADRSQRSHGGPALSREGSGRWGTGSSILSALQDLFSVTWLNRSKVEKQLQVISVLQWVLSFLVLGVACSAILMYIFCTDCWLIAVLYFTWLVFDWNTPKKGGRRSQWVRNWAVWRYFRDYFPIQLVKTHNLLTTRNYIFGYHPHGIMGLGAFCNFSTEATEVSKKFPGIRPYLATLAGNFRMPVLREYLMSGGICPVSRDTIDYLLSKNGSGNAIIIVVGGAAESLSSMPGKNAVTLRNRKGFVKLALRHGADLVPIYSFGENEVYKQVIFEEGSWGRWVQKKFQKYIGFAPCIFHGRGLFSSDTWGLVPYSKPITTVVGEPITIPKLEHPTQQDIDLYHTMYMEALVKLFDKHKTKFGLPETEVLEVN
The assay is described as follows: Measurement of inhibitory effect against DGAT2 enzyme activity (SPA, Phospholipid FlashPlate, [14C]-TG production). It counts as biochemical. As to conditions: concentration inhibiting [14C]-labeled triacyl glycerol (TG) production by 50%; 2 μg DGAT2-membrane protein from Sf-21 cells, 37° C. Summed up:
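Membranes from Sf-21 cells expressing human DGAT2 (2 μg) preincubated 20 min at 37 °C with compound (3 nM–10 μM, 1% DMSO) in HEPES/MgCl2/BSA with 50 μM 1,2-dioleoyl glycerol, then 1 μM [14C]oleoyl-CoA for 15 min. [14C]-TG measured by SPA FlashPlate; inhibition as % of untreated control.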
Turning to `CCOc1ccccc1O[C@@H]1CCCN(c2cncc(NC(=O)Cc3ccc(O[C@H](C)C(=O)O)cc3)n2)C1` [Example 103, (R)-2-(4-(2-((6-((R)-3-(2-ethoxyphenoxy)piperidin-1-yl)pyrazin-2-yl)amino)-2-oxoethyl)phenoxy)propanoic acid], the 50% inhibitory concentration (IC50) was determined as 620 nM.

As for `CCOc1ccccc1O[C@@H]1CCCN(c2cncc(NC(=O)Cc3ccc(O[C@@H](C)C(=O)O)cc3)n2)C1` [Example 104, (S)-2-(4-(2-((6-((R)-3-(2-ethoxyphenoxy)piperidin-1-yl)pyrazin-2-yl)amino)-2-oxoethyl)phenoxy)propanoic acid], the IC50 worked out at 660 nM.

On to `CCOc1cccnc1O[C@@H]1CCCN(c2cncc(NC(=O)Cc3ccc(OC(C)(C)C(=O)O)cc3)n2)C1` [Example 105, (R)-2-(4-(2-((6-(3-((3-ethoxypyridin-2-yl)oxy)piperidin-1-yl)pyrazin-2-yl)amino)-2-oxoethyl)phenoxy)-2-methylpropanoic acid], for which the IC50 stood at 90 nM.

On to `CCOc1ccccc1O[C@@H]1CCCN(c2nccc(NC(=O)Cc3ccc(OC(C)(C)C(=O)O)cc3)n2)C1` [Example 106, (R)-2-(4-(2-((2-(3-(2-ethoxyphenoxy)piperidin-1-yl)pyrimidin-4-yl)amino)-2-oxoethyl)phenoxy)-2-methylpropanoic acid], for which the IC50 worked out at 730 nM.

In the case of `CCOc1ccccc1O[C@@H]1CCCN(c2cncc(NC(=O)Cc3ccc(OCc4ccc(C(C)(C)C(=O)O)cc4)cc3)n2)C1` [Example 107, (R)-2-(4-((4-(2-((6-(3-(2-ethoxyphenoxy)piperidin-1-yl)pyrazin-2-yl)amino)-2-oxoethyl)phenoxy)methyl)phenyl)-2-methylpropanoic acid], the IC50 was found to be 70 nM.

`CCOc1cccnc1O[C@@H]1CCCN(c2cncc(NC(=O)CCc3ccc(OC(C)(C)C(=O)O)cc3)n2)C1` [Example 108, (R)-2-(4-(3-((6-(3-((3-ethoxypyridin-2-yl)oxy)piperidin-1-yl)pyrazin-2-yl)amino)-3-oxopropyl)phenoxy)-2-methylpropanoic acid]: the IC50 worked out at 78 nM.

Regarding `CCOc1ccccc1O[C@@H]1CCCN(c2nccc(NC(=O)CCc3ccc(OC(C)(C)C(=O)O)cc3)n2)C1` [Example 109, (R)-2-(4-(3-((2-(3-(2-ethoxyphenoxy)piperidin-1-yl)pyrimidin-4-yl)amino)-3-oxopropyl)phenoxy)-2-methylpropanoic acid], the IC50 is 1100 nM.

On to `CCOc1ccccc1O[C@@H]1CCCN(c2cncc(NC(=O)C(C)(C)c3ccc(CC(C)(C)C(=O)O)cc3)n2)C1` [Example 110, (R)-3-(4-(1-((6-(3-(2-ethoxyphenoxy)piperidin-1-yl)pyrazin-2-yl)amino)-2-methyl-1-oxopropan-2-yl)phenyl)-2,2-dimethylpropanoic acid], for which the IC50 worked out at 76 nM.

In the case of `CCOc1ccccc1O[C@@H]1CCCN(c2cncc(NC(=O)C(C)(C)Cc3ccc(C(C)(C)C(=O)O)cc3)n2)C1` [Example 111, (R)-2-(4-(3-((6-(3-(2-ethoxyphenoxy)piperidin-1-yl)pyrazin-2-yl)amino)-2,2-dimethyl-3-oxopropyl)phenyl)-2-methylpropanoic acid], the IC50 is 690 nM.

Consider `CCOc1ccccc1O[C@@H]1CCCN(c2nccc(NC(=O)Cc3ccc(CC(C)(C)C(=O)O)cc3)n2)C1` [Example 112, (R)-3-(4-(2-((2-(3-(2-ethoxyphenoxy)piperidin-1-yl)pyrimidin-4-yl)amino)-2-oxoethyl)phenyl)-2,2-dimethylpropanoic acid], for which the IC50 is 60 nM.

Take `CCOc1ccccc1O[C@@H]1CCCN(c2ccnc(NC(=O)Cc3ccc(CC(C)(C)C(=O)O)cc3)n2)C1` [Example 113, (R)-3-(4-(2-((4-(3-(2-ethoxyphenoxy)piperidin-1-yl)pyrimidin-2-yl)amino)-2-oxoethyl)phenyl)-2,2-dimethylpropanoic acid]: the IC50 was 150 nM.

Regarding `CCOc1cccnc1O[C@@H]1CCCN(c2ccnc(NC(=O)Cc3ccc(CC(C)(C)C(=O)O)cc3)n2)C1` [Example 114, (R)-3-(4-(2-((4-(3-((3-ethoxypyridin-2-yl)oxy)piperidin-1-yl)pyrimidin-2-yl)amino)-2-oxoethyl)phenyl)-2,2-dimethylpropanoic acid], the concentration for half-maximal inhibition (IC50) came to 140 nM.

On to `CCOc1cccnc1O[C@@H]1CCCN(c2nccc(NC(=O)Cc3ccc(CC(C)(C)C(=O)O)cc3)n2)C1` [Example 115, (R)-3-(4-(2-((2-(3-((3-ethoxypyridin-2-yl)oxy)piperidin-1-yl)pyrimidin-4-yl)amino)-2-oxoethyl)phenyl)-2,2-dimethylpropanoic acid], for which the half-inhibitory concentration (IC50) was 140 nM.

`CCOc1cccnc1O[C@@H]1CCCN(c2cncc(NC(=O)Cc3ccc(CC(C)(C)C(=O)O)cc3)n2)C1` [Example 116, (R)-3-(4-(2-((6-(3-((3-ethoxypyridin-2-yl)oxy)piperidin-1-yl)pyrazin-2-yl)amino)-2-oxoethyl)phenyl)-2,2-dimethylpropanoic acid]: the IC50 stood at 38 nM.

Consider `CCOc1ccccc1O[C@@H]1CCCN(c2cncc(NC(=O)CCC34CCC(C(=O)O)(CC3)CC4)n2)C1` [Example 117, (R)-4-(3-((6-(3-(2-ethoxyphenoxy)piperidin-1-yl)pyrazin-2-yl)amino)-3-oxopropyl)bicyclo[2.2.2]octane-1-carboxylic acid], for which the IC50 was 140 nM.

As to `CCOc1ccccc1O[C@@H]1CCCN(c2cncc(NC(=O)CC34CCC(C(=O)O)(CC3)CC4)n2)C1` [Example 118, (R)-4-(2-((6-(3-(2-ethoxyphenoxy)piperidin-1-yl)pyrazin-2-yl)amino)-2-oxoethyl)bicyclo[2.2.2]octane-1-carboxylic acid], the IC50 amounted to 170 nM.

`CCOc1cccnc1O[C@@H]1CCCN(c2cncc(NC(=O)CCC34CCC(C(=O)O)(CC3)CC4)n2)C1` [Example 120, (R)-4-(3-((6-(3-((3-ethoxypyridin-2-yl)oxy)piperidin-1-yl)pyrazin-2-yl)amino)-3-oxopropyl)bicyclo[2.2.2]octane-1-carboxylic acid]: the 50% inhibitory concentration (IC50) was found to be 250 nM.

With `CCOc1ccccc1O[C@@H]1CCCN(c2cncc(NC(=O)/C=C/C34CCC(C(=O)O)(CC3)CC4)n2)C1` [Example 121, (R,E)-4-(3-((6-(3-(2-ethoxyphenoxy)piperidin-1-yl)pyrazin-2-yl)amino)-3-oxoprop-1-en-1-yl)bicyclo[2.2.2]octane-1-carboxylic acid], the IC50 amounted to 98 nM.

Consider `CCOc1ccccc1O[C@@H]1CCCN(c2nccc(NC(=O)CCc3ccc(C(C)(C)C(=O)O)cc3)n2)C1` [Example 122, (R)-2-(4-(3-((2-(3-(2-ethoxyphenoxy)piperidin-1-yl)pyrimidin-4-yl)amino)-3-oxopropyl)phenyl)-2-methylpropanoic acid], for which the IC50 amounted to 60 nM.

`CCOc1cccnc1O[C@@H]1CCCN(c2cncc(NC(=O)CCc3ccc(C(C)(C)C(=O)O)cc3)n2)C1` [Example 123, (R)-2-(4-(3-((6-(3-((3-ethoxypyridin-2-yl)oxy)piperidin-1-yl)pyrazin-2-yl)amino)-3-oxopropyl)phenyl)-2-methylpropanoic acid]: the IC50 is 35 nM.

On to `CCOc1ccccc1O[C@@H]1CCCN(c2nccc(NC(=O)C(C)(C)c3ccc(CC(C)(C)C(=O)O)cc3)n2)C1` [Example 124, (R)-3-(4-(1-((2-(3-(2-ethoxyphenoxy)piperidin-1-yl)pyrimidin-4-yl)amino)-2-methyl-1-oxopropan-2-yl)phenyl)-2,2-dimethylpropanoic acid], for which the concentration for half-maximal inhibition (IC50) turned out to be 330 nM.

Turning to `CCOc1cccnc1O[C@@H]1CCCN(c2cncc(NC(=O)C(C)(C)c3ccc(CC(C)(C)C(=O)O)cc3)n2)C1` [Example 125, (R)-3-(4-(1-((6-(3-((3-ethoxypyridin-2-yl)oxy)piperidin-1-yl)pyrazin-2-yl)amino)-2-methyl-1-oxopropan-2-yl)phenyl)-2,2-dimethylpropanoic acid], the IC50 is 35 nM.

Take `CC(C)(Cc1ccc(C(C)(C)C(=O)Nc2cncc(N3CCC[C@@H](Oc4ccccc4OC4CCC4)C3)n2)cc1)C(=O)O` [Example 126, (R)-3-(4-(1-((6-(3-(2-cyclobutoxyphenoxy)piperidin-1-yl)pyrazin-2-yl)amino)-2-methyl-1-oxopropan-2-yl)phenyl)-2,2-dimethylpropanoic acid]: the IC50 came out at 3800 nM.

For `CCOc1ccccc1O[C@@H]1CCCN(c2cncc(NC(=O)CCc3cccc(CC(C)(C)C(=O)O)c3)n2)C1` [Example 127, (R)-3-(3-(3-((6-(3-(2-ethoxyphenoxy)piperidin-1-yl)pyrazin-2-yl)amino)-3-oxopropyl)phenyl)-2,2-dimethylpropanoic acid], the IC50 is 83 nM.

In the case of `CCOc1cccnc1O[C@@H]1CCCN(c2cncc(NC(=O)CCc3cccc(CC(C)(C)C(=O)O)c3)n2)C1` [Example 128, (R)-3-(3-(3-((6-(3-((3-ethoxypyridin-2-yl)oxy)piperidin-1-yl)pyrazin-2-yl)amino)-3-oxopropyl)phenyl)-2,2-dimethylpropanoic acid], the IC50 came to 100 nM.

Regarding `CCOc1ccccc1O[C@@H]1CCCN(c2cncc(NC(=O)c3cccc(-c4cccc(CC(C)(C)C(=O)O)c4)c3)n2)C1` [Example 129, (R)-3-(3′-((6-(3-(2-ethoxyphenoxy)piperidin-1-yl)pyrazin-2-yl)carbamoyl)-[1,1′-biphenyl]-3-yl)-2,2-dimethylpropanoic acid], the IC50 turned out to be 540 nM.
